The values that follow come from patent US12427144B2, “Compounds and methods for the targeted degradation of androgen receptor” (Arvinas Operations, Inc., priority 2019, dated 2025).

For the experiment, the target named is T1, androgen receptor (Homo sapiens, UniProt P10275).
T1 construct: endogenous in cells; host or cells: VCaP
T1 sequence (P10275 1-920): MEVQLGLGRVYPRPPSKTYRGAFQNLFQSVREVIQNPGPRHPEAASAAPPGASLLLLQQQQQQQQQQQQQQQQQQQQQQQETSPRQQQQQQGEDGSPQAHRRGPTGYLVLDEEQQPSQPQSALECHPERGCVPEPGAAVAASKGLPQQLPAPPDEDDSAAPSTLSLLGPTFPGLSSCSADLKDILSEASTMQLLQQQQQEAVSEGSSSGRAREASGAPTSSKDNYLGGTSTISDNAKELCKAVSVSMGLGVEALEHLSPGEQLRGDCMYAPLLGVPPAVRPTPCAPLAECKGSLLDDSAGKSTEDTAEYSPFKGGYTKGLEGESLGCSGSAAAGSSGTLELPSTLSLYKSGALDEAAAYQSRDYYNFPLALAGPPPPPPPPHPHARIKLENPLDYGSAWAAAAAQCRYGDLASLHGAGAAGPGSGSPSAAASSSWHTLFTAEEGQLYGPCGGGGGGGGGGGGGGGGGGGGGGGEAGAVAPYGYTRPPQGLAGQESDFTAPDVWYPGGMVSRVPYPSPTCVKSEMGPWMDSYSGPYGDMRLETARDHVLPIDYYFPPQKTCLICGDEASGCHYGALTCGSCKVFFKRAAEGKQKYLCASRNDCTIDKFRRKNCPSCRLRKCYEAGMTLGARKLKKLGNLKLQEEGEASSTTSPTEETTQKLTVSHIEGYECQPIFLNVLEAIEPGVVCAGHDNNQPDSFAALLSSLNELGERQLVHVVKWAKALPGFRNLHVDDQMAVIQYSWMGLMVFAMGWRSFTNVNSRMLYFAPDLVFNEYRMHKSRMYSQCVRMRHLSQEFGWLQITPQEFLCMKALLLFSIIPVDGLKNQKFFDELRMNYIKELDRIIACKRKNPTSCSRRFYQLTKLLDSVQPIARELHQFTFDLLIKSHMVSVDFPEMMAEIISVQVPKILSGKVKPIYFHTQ
Briefly: AR ELISA assay (PathScan AR Sandwich ELISA), VCaP cells. It counts as cell-based. As to conditions: drug treatment 5 hours. How it is done:
Compounds were evaluated in this assay in LNCaP and/or VCaP cells utilizing similar protocols. The protocols used with VCaP cells are described below. The androgen receptor ELISA assay was performed using PathScan AR Sandwich ELISA (Cell Signaling Catalog #12850) according to the following assay steps:
VCaP cells were seeded at 40,000 cells/well at a volume of 100 μL/well in VCaP assay medium [Phenol red free RPMI (Gibco Cat #11835-030); 5% Charcoal Stripped (Dextran treated) FBS (Omega Scientific, Cat #FB-04); 1% penstrep (Life Technologies, Gibco Cat #: 10378-016)] in Corning 3904 plates. The cells were incubated for a minimum of 3 days. Cells were dosed with PROTACs diluted in 0.01% DMSO and the drug treatment was allowed for 5 hours.
AR ELISA (Cell Signaling) was performed as follows. 1× Cell Signaling Cell lysis buffer was made (Catalogue #9803; comes with the kit). Media from the treated wells is aspirated, and 100 μL 1× cell lysis buffer/well is added. The cells were placed on a shaker for 10 minutes at 4° C. Twenty microliters of lysate was transferred to 100 μl of Diluent in ELISA plate (0.15 μg/ml-[…]). The lysate-diluent mixture was shaken for 30 minutes at 37° C. Allow mouse AR antibody, anti-mouse antibody, TMB, and STOP solution to come to room temperature. The 1×ELISA buffer included in kit was made and loaded in the reservoir. Media from the plates was discarded, the ELISA plate tapped hard on paper towel, and washed 4×200 μl ELISA wash buffer using a plate washer.
One-hundred (100) […] of mouse AR detection Ab was added; the plates were covered and shaken at 37° C. for 1 hour; media was discarded from the plates, the plates were tapped on a paper towel, washed 4× with 200 μL ELISA wash buffer with a plate washer.
One-hundred (100) […] of anti-mouse—HRP conjugated Ab (comes with the kit) was added; the plates were covered and shaken at 37° C. for 30 minutes; the TMB reagent was allowed to come to room temperature; the media was discard from the plate, the plates were tapped on paper towel, washed 4× with 200 μL of ELISA wash buffer; the plates were tapped the plates on paper towel. One-hundred (100) L of TMB was added and the plates shaken for 2 minutes—while watching for color development. One-hundred (100) L Stop solution was added when light blue color developed. Plates were shaken and read at 450 nm.
Progression of prostate cancer in patients treated with anti-androgen therapy usually involves one of several mechanisms of enhanced Androgen Receptor (AR) signaling, including increased intratumoral androgen synthesis, increased AR expression and AR mutations. PROTACs (PROteolysis TArgeting Chimera), which use bi-functional molecules that simultaneously bind a target of choice and an E3 ligase, cause ubiquitination via induced proximity and degradation of the targeted, pathological protein. As opposed to traditional target inhibition, which is a competitive process, degradation is a progressive process. As such, it is less susceptible to increases in endogenous ligand, target expression, or mutations in the target. Thus, this technology appears to be ideal for addressing the mechanisms of AR resistance in patients with prostate cancer. Data was analyzed and plotted using GraphPad Prism software.
On to `Cc1cc(O[C@H]2C(C)(C)[C@H](NC(=O)c3ccc(N4CCC(CN5CCN(c6ccc(C(=O)NC7CCC(=O)NC7=O)cc6)CC5)CC4)nn3)C2(C)C)cc(C)c1C#N` (stereo partly drawn) [Compound 2, N-((1R,3R)-3-(4-cyano-3,5-dimethylphenoxy)-2,2,4,4-tetramethylcyclobutyl)-6-(4-((4-(4-((2,6-dioxopiperidin-3-yl)carbamoyl)phenyl)piperazin-1-yl)methyl)piperidin-1-yl)pyridazine-3-carboxamide], for which the DC50 was under 1 nM and the Dmax is at least 70%.

As to `CC1(C)[C@H](NC(=O)c2ccc(N3CCC(CN4CCN(c5ccc(C(=O)NC6CCC(=O)NC6=O)cc5)CC4)CC3)nn2)C(C)(C)[C@H]1Oc1ccc(C#N)c(Cl)c1` (stereo partly drawn) [Compound 3, N-[3-(3-chloro-4-cyanophenoxy)-2,2,4,4-tetramethylcyclobutyl]-6-[4-[(4-[4-[(2,6-dioxopiperidin-3-yl)carbamoyl]phenyl]piperazin-1-yl)methyl]piperidin-1-yl]pyridazine-3-carboxamide], the DC50 was under 1 nM and the Dmax is at least 70%.

The molecule `CC1(C)[C@H](NC(=O)c2ccc(N3CCC(CN4CCN(c5cccc(C(=O)NC6CCC(=O)NC6=O)c5)CC4)CC3)cc2)C(C)(C)[C@H]1Oc1ccc(C#N)c(Cl)c1` (stereo partly drawn) [Compound 4, 3-(4-((1-(4-(((1R,3R)-3-(3-chloro-4-cyanophenoxy)-2,2,4,4-tetramethylcyclobutyl)carbamoyl)phenyl)piperidin-4-yl)methyl)piperazin-1-yl)-N-(2,6-dioxopiperidin-3-yl)benzamide] came in with a DC50 of under 1 nM and a Dmax of under 50%.

As for `Cc1cc(O[C@H]2C(C)(C)[C@H](NC(=O)c3ccc(N4CCC(CN5CCN(c6cncc(C(=O)NC7CCC(=O)NC7=O)c6)CC5)CC4)cc3)C2(C)C)cc(C)c1C#N` (stereo partly drawn) [Compound 5, N-(2,6-dioxopiperidin-3-yl)-5-(4-[[1-(4-[[(1r,3r)-3-(4-cyano-3,5-dimethylphenoxy)-2,2,4,4-tetramethylcyclobutyl]carbamoyl]phenyl)piperidin-4-yl]methyl]piperazin-1-yl)pyridine-3-carboxamide], the DC50 is under 1 nM and the Dmax was under 50%.

In turn, `Cc1cc(O[C@H]2C(C)(C)[C@H](NC(=O)c3ccc(N4CCC(CN5CCN(c6ccc(F)c(C(=O)NC7CCC(=O)NC7=O)c6)CC5)CC4)cc3)C2(C)C)cc(C)c1C#N` (stereo partly drawn) [Compound 6, 5-(4-((1-(4-(((1R,3R)-3-(4-cyano-3,5-dimethylphenoxy)-2,2,4,4-tetramethylcyclobutyl)carbamoyl)phenyl)piperidin-4-yl)methyl)piperazin-1-yl)-N-(2,6-dioxopiperidin-3-yl)-2-fluorobenzamide] came in with a DC50 of under 1 nM and a Dmax of 50 to 70%.

Take `CC1(C)[C@H](NC(=O)c2ccc(N3CCC(CN4CCN(c5ccc(C(=O)NC6CCC(=O)NC6=O)cc5)CC4)CC3)cc2)C(C)(C)[C@H]1Oc1ccc(C#N)c(Cl)c1` (stereo partly drawn) [Compound 7, N-((1R,3R)-3-(3-chloro-4-cyanophenoxy)-2,2,4,4-tetramethylcyclobutyl)-4-(4-((4-(4-((2,6-dioxopiperidin-3-yl)carbamoyl)phenyl)piperazin-1-yl)methyl)piperidin-1-yl)benzamide]: the DC50 is under 1 nM and the Dmax is at least 70%.

`CC1(C)[C@H](NC(=O)c2ccc(N3CCC(CN4CCN(c5ccc(F)c(C(=O)NC6CCC(=O)NC6=O)c5)CC4)CC3)cc2)C(C)(C)[C@H]1Oc1ccc(C#N)c(Cl)c1` (stereo partly drawn) [Compound 8, 5-(4-((1-(4-(((1R,3R)-3-(3-chloro-4-cyanophenoxy)-2,2,4,4-tetramethylcyclobutyl)carbamoyl)phenyl)piperidin-4-yl)methyl)piperazin-1-yl)-N-(2,6-dioxopiperidin-3-yl)-2-fluorobenzamide] had a DC50 of under 1 nM and a Dmax of under 50%.

As to `CC(C)N(CC1CCN(c2cnc(C(=O)N[C@H]3C(C)(C)[C@H](Oc4ccc(C#N)c(Cl)c4)C3(C)C)cn2)CC1)[C@H]1C[C@H](Oc2cccc(C(=O)NC3CCC(=O)NC3=O)c2)C1` (stereo partly drawn) [Compound 9, N-((1R,3R)-3-(3-chloro-4-cyanophenoxy)-2,2,4,4-tetramethylcyclobutyl)-5-(4-((((1R,3R)-3-(3-((2,6-dioxopiperidin-3-yl)carbamoyl)phenoxy)cyclobutyl)(isopropyl)amino)methyl)piperidin-1-yl)pyrazine-2-carboxamide], the DC50 is at least 100 nM and the Dmax is under 50%.

The molecule `Cc1cc(O[C@H]2C(C)(C)[C@H](NC(=O)c3ccc(N4CCC(CN5CCN(c6ccnc(C(=O)NC7CCC(=O)NC7=O)c6)CC5)CC4)cc3)C2(C)C)cc(C)c1C#N` (stereo partly drawn) [Compound 10, 4-(4-((1-(4-(((1R,3R)-3-(4-cyano-3,5-dimethylphenoxy)-2,2,4,4-tetramethylcyclobutyl)carbamoyl)phenyl)piperidin-4-yl)methyl)piperazin-1-yl)-N-(2,6-dioxopiperidin-3-yl)picolinamide] yielded a DC50 of under 1 nM and a Dmax of 50 to 70%.

`Cc1cc(O[C@H]2C(C)(C)[C@H](NC(=O)c3cnc(N4CCC(CN(C(C)C)[C@H]5C[C@H](Oc6cccc(C(=O)NC7CCC(=O)NC7=O)c6)C5)CC4)nc3)C2(C)C)cc(C)c1C#N` (stereo partly drawn) [Compound 11, N-((1R,3R)-3-(4-cyano-3,5-dimethylphenoxy)-2,2,4,4-tetramethylcyclobutyl)-2-(4-((((1R,3R)-3-(3-((2,6-dioxopiperidin-3-yl)carbamoyl)phenoxy)cyclobutyl)(isopropyl)amino)methyl)piperidin-1-yl)pyrimidine-5-carboxamide]: the DC50 is under 1 nM and the Dmax lay in the range of 50 to 70%.

Consider `Cc1cc(O[C@H]2C(C)(C)[C@H](NC(=O)c3cnc(N4CCC(CN(C(C)C)[C@H]5C[C@H](Oc6ccc(C(=O)NC7CCC(=O)NC7=O)cc6)C5)CC4)nc3)C2(C)C)cc(C)c1C#N` (stereo partly drawn) [Compound 12, N-((1R,3R)-3-(4-cyano-3,5-dimethylphenoxy)-2,2,4,4-tetramethylcyclobutyl)-2-(4-((((1R,3R)-3-(4-((2,6-dioxopiperidin-3-yl)carbamoyl)phenoxy)cyclobutyl)(isopropyl)amino)methyl)piperidin-1-yl)pyrimidine-5-carboxamide], for which the DC50 was under 1 nM and the Dmax was at least 70%.

Turning to `Cc1cc(O[C@H]2C(C)(C)[C@H](NC(=O)c3cnc(N4CCC(CN(C(C)C)[C@H]5C[C@H](Oc6ccc(C(=O)NC7CCC(=O)NC7=O)cc6)C5)CC4)cn3)C2(C)C)cc(C)c1C#N` (stereo partly drawn) [Compound 13, N-((1R,3R)-3-(4-cyano-3,5-dimethylphenoxy)-2,2,4,4-tetramethylcyclobutyl)-5-(4-((((1R,3R)-3-(4-((2,6-dioxopiperidin-3-yl)carbamoyl)phenoxy)cyclobutyl)(isopropyl)amino)methyl)piperidin-1-yl)pyrazine-2-carboxamide], the DC50 was in the range of 1 to 10 nM and the Dmax lay in the range of 50 to 70%.
